Laboratory results from ChEMBL document CHEMBL3351888, “Synthesis and Pharmacological Evaluation of DHβE Analogues as Neuronal Nicotinic Acetylcholine Receptor Antagonists” (ACS Med Chem Lett, 2014).

Key:
[1] = target: T1, Neuronal acetylcholine receptor; alpha3/beta4 (Rattus norvegicus, UniProt P04757+P12392); assay: Displacement of [3H]epibatidine from rat alpha3beta4 nAChR transfected in HEK293 cells after 4 hrs by scintillation count analysis; format: cell-based
[2] = target: Neuronal acetylcholine receptor; alpha4/beta4 (Rattus norvegicus, UniProt P09483+P12392); assay: Displacement of [3H]epibatidine from rat alpha4beta4 nAChR transfected in HEK293 cells after 4 hrs by scintillation count analysis; format: cell-based
Sequence of Neuronal acetylcholine receptor; alpha4/beta4 (P09483 whole entry): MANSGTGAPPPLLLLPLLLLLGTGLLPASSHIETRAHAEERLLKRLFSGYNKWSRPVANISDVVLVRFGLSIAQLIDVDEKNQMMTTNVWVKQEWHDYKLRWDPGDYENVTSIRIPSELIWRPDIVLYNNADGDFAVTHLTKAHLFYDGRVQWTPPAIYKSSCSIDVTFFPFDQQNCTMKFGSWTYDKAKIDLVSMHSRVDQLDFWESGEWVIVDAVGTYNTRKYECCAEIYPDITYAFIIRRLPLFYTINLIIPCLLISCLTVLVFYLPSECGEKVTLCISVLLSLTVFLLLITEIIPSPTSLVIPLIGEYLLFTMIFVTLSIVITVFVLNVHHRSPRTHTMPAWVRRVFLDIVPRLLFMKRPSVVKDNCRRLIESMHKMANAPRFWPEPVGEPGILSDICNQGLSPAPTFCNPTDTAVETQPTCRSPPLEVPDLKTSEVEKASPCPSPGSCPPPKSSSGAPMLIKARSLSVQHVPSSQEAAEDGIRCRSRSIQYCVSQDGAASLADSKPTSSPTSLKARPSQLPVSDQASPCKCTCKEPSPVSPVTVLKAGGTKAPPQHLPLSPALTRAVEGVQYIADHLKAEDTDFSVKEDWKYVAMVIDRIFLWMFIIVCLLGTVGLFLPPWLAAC
Sequence of Neuronal acetylcholine receptor; alpha4/beta4 (P12392 whole entry): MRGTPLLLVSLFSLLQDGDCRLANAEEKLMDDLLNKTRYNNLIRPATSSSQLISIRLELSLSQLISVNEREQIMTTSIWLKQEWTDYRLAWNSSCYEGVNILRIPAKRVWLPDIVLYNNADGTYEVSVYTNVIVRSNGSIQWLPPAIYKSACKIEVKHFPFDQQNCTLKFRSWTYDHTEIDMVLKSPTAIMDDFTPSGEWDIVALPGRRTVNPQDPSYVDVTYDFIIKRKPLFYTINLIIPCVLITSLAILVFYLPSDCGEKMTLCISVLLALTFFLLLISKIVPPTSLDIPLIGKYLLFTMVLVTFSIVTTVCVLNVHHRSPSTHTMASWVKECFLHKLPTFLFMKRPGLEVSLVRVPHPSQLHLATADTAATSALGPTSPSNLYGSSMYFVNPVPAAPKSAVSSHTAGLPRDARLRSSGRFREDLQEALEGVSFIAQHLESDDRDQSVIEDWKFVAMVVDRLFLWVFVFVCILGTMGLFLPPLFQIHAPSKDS

[3] = target: T2, Neuronal acetylcholine receptor; alpha4/beta2 (Rattus norvegicus, UniProt P09483+P12390); assay: Inhibition of rat membrane alpha4beta2 nAChR by [3H]cytisine binding assay
T2 sequence (P09483 whole entry): as the sequence (P09483 whole entry) above
T2 sequence (P12390 whole entry): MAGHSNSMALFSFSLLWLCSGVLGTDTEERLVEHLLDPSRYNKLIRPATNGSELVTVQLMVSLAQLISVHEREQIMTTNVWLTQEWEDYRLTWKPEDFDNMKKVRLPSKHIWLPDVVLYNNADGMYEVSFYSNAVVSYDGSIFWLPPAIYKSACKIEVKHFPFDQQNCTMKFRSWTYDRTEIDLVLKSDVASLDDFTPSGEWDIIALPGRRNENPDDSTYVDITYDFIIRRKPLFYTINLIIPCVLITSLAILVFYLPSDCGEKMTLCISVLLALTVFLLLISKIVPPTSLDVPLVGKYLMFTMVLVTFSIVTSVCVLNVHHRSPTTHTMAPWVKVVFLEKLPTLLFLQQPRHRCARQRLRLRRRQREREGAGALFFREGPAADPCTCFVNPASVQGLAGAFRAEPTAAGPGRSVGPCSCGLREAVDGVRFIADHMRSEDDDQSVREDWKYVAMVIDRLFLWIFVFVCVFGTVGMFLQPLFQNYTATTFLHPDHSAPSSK

[4] = target: Nicotinic acetylcholine receptor alpha-4/beta-2 (Mus musculus, UniProt Q8R493+Q9ERK7); assay: Antagonist activity at mouse alpha4beta2 nAChR transfected in HEK293 cells by FLIPR membrane potential blue (FMP) assay; format: cell-based
Sequence of Nicotinic acetylcholine receptor alpha-4/beta-2 (Q9ERK7 whole entry): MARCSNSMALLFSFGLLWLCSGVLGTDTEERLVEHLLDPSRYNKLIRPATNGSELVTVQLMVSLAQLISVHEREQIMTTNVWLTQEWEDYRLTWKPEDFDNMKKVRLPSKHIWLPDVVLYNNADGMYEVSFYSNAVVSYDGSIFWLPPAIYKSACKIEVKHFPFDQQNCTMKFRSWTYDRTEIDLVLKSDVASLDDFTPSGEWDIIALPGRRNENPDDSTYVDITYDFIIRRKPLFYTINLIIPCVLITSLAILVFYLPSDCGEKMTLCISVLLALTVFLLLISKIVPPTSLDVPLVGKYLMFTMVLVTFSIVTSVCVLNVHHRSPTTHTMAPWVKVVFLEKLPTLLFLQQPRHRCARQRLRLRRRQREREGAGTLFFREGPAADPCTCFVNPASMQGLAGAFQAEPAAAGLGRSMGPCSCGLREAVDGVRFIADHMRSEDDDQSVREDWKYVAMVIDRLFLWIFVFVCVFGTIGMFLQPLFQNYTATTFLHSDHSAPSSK
Sequence of Nicotinic acetylcholine receptor alpha-4/beta-2 (Q8R493 whole entry): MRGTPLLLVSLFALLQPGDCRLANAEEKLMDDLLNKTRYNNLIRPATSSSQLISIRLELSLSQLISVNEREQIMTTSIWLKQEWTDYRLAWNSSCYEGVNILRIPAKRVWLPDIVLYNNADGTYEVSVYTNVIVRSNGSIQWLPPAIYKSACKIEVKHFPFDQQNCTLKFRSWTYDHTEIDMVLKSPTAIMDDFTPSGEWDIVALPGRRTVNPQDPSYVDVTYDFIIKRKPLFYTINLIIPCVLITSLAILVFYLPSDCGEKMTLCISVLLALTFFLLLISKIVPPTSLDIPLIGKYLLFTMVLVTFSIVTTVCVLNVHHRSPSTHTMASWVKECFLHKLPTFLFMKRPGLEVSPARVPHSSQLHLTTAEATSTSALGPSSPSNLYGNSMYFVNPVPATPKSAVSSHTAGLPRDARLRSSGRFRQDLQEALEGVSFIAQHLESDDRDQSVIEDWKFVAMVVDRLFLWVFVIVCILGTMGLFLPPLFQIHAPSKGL

[5] = target: T2, Neuronal acetylcholine receptor; alpha4/beta2; assay: Displacement of [3H]epibatidine from rat alpha4beta2 nAChR transfected in HEK293 cells after 4 hrs by scintillation count analysis; format: cell-based
[6] = target: T1, Neuronal acetylcholine receptor; alpha3/beta4; assay: Antagonist activity at rat alpha3beta4 nAChR transfected in HEK293 cells by FLIPR membrane potential blue (FMP) assay; format: cell-based

T1 sequence (P04757 whole entry): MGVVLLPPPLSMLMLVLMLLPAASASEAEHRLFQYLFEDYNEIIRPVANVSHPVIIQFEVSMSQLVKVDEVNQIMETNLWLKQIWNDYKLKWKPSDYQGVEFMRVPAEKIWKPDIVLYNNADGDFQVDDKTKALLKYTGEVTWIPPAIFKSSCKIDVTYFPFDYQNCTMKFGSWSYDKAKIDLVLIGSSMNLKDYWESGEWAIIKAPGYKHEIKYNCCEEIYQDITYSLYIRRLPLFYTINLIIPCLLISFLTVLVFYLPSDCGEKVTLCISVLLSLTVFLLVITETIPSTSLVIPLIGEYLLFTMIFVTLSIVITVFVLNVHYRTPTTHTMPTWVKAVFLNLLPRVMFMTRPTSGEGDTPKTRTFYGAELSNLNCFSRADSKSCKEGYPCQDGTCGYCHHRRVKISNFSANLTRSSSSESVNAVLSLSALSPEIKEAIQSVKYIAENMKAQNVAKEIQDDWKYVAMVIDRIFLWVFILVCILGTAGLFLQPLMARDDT
T1 sequence (P12392 whole entry): as the sequence (P12392 whole entry) above

Row | Structure (SMILES) | Ki [1] | Ki [2] | Ki [3] | IC50 [4] | Ki [5] | IC50 [6]
1 | CO[C@H]1CC=C2CCN3CCC4=C(CC(=O)OC4)[C@]23C1 | 100 µM | 100 µM | 140 nM | 1.2 µM | 0.82 µM | 
2 | CO[C@H]1CC[C@H]2CCN3CCC4=C(CC(=O)OC4)[C@]23C1 |  |  | 7400 nM |  |  | 
3 | CO[C@H]1C=CC2=CCN3CCC4=C(CC(=O)OC4)[C@]23C1 |  |  | 1100 nM |  |  | 
4 | CO[C@H]1CC[C@H]2CCN(C)[C@H]2C1 (racemic) | > 300 µM | > 300 µM |  | > 300 µM | 300 µM | > 300 µM
5 | CO[C@H]1CC=C2CCN(C)[C@H]2C1 (racemic) | 100 µM | 100 µM |  | 30 µM | 3.4 µM | > 300 µM
6 | CO[C@H]1C=CC2=CCN(C)[C@H]2C1 (racemic) | > 300 µM | > 300 µM |  | 100 µM | 30 µM | > 300 µM
7 | CN1CC[C@@H]2CC[C@H](O)C[C@@H]21 (racemic) | > 300 µM | > 300 µM |  | > 300 µM | > 300 µM | > 300 µM
8 | CCO[C@H]1CC[C@H]2CCN(C)[C@H]2C1 (racemic) | 300 µM | > 300 µM |  | > 300 µM | 300 µM | > 300 µM
9 | CN1CC[C@@H]2CC[C@H](OCc3ccccc3)C[C@@H]21 (racemic) | 100 µM | 300 µM |  | > 300 µM | 100 µM | > 300 µM
10 | COCCO[C@H]1CC[C@H]2CCN(C)[C@H]2C1 (racemic) | 300 µM | > 300 µM |  | > 300 µM | 300 µM | > 300 µM
11 | O[C@H]1CC[C@H]2CCN[C@H]2C1 (racemic) | > 300 µM | > 300 µM |  | > 100 µM | > 300 µM | > 300 µM
12 | CN1CCC2=CC[C@H](O)C[C@@H]21 (racemic) | > 300 µM | > 300 µM |  | > 100 µM | 300 µM | > 300 µM
13 | CCO[C@H]1CC=C2CCN(C)[C@H]2C1 (racemic) | > 300 µM | > 300 µM |  | > 300 µM | 300 µM | > 300 µM
14 | CN1CCC2=CC[C@H](OCc3ccccc3)C[C@@H]21 (racemic) | 300 µM | 300 µM |  | > 300 µM | 300 µM | > 300 µM
15 | COCCO[C@H]1CC=C2CCN(C)[C@H]2C1 (racemic) | > 300 µM | > 300 µM |  | > 300 µM | > 300 µM | > 300 µM
16 | O[C@H]1CC=C2CCN[C@H]2C1 (racemic) | > 300 µM | > 300 µM |  | > 300 µM | > 300 µM | > 300 µM
17 | CO[C@H]1CC=C2CCN[C@H]2C1 (racemic) | > 300 µM | > 300 µM |  | 100 µM | 300 µM | > 300 µM
